Test results reported in patent publication US5300629A, “Bactericidal and/or bacteriostatic peptides isolated from hemolymph of honeybees” (Plant Genetic Systems, N.V., priority 1987, dated 1994).
Where a SMILES comes first, the peptide text is derived from it.

How the values were obtained:
Assay type in all cases: cell-based
[1] = test system: Agrobacterium radiobacter ATCC 19358; assay: Inhibition zone assay; parameters: key: --: "-" means that no inhibition has been found; conditions: I and B 10 ul, L 5 ug
[2] = test system: Azospirillum brasilliense ATCC 29145; assay: Inhibition zone assay; parameters: key: --: "-" means that no inhibition has been found
Proteus mirabilis AU 87 = assay: Inhibition zone assay; parameters: key: --: "-" means that no inhibition has been found; conditions: I and B 10 ul
[3] = test system: Xanthomonas campestris pv. vesicatoria XV82-4; assay: Inhibition zone assay; parameters: key: --: "-" means that no inhibition has been found; conditions: I and B 10 ul, L 5 ug
[4] = test system: Pseudomonas syringae pv. maculicola NCPPB 1776; assay: Inhibition zone assay; parameters: key: --: "-" means that no inhibition has been found; conditions: * synthetic ApidIa and heattreated immune lymph instead of Bee6 and native immune lymph
[5] = test system: Erwinia salicis NCPPB 2530; assay: Inhibition zone assay; parameters: key: --: "-" means that no inhibition has been found; conditions: I and B 10 ul, L 5 ug
[6] = test system: Erwinia amylovora NCPPB 638; assay: Inhibition zone assay
Salmonella Wien 83/16 = assay: Inhibition zone assay; parameters: key: --: "-" means that no inhibition has been found; conditions: I and B 10 ul
[7] = test system: Erwinia carotovora var. carotovora NCPPB 312; assay: Inhibition zone assay; parameters: key: --: "-" means that no inhibition has been found
[8] = test system: Clostridium perfringens NCTC 6785; parameters: key: --: "-" means that no inhibition has been found; conditions: I 10 ul
[9] = test system: Bacillus subtilis NRRL B-237; assay: Inhibition zone assay; conditions: I and B 10 ul, L 5 ug
[10] = test system: Staphylococcus aureus STA 1; assay: Inhibition zone assay; parameters: key: --: "-" means that no inhibition has been found; conditions: I 10 ul
[11] = test system: Acinetobacter calcoaceticus MON 108; assay: Inhibition zone assay; parameters: key: --: "-" means that no inhibition has been found
[12] = test system: Serratia plymuthica ATCC 183; assay: Inhibition zone assay; parameters: key: --: "-" means that no inhibition has been found; conditions: I and B 10 ul, L 5 ug
[13] = test system: Micrococcus lysodeikticus LMG 4050; assay: Inhibition zone assay; parameters: key: --: "-" means that no inhibition has been found; conditions: I and B 10 ul, L 5 ug
[14] = test system: Pseudomonas cepacia ATCC 25416; assay: Inhibition zone assay; parameters: key: --: "-" means that no inhibition has been found; conditions: I and B 10 ul, L 5 ug
[15] = test system: Pseudomonas aureofaciens CCEB 518; assay: Inhibition zone assay; parameters: key: --: "-" means that no inhibition has been found; conditions: I and B 10 ul, L 5 ug
[16] = test system: Streptococcus B CDC 55 460; assay: Inhibition zone assay; parameters: key: --: "-" means that no inhibition has been found; conditions: I 10 ul
[17] = test system: Yersinia enterocolitica PGS C-1106; assay: Inhibition zone assay; parameters: key: --: "-" means that no inhibition has been found; conditions: * synthetic ApidIa and heattreated immune lymph instead of Bee6 and native immune lymph
[18] = test system: Haemophilus influenzae NCTC 7279; assay: Inhibition zone assay; parameters: key: --: "-" means that no inhibition has been found; conditions: I and B 10 ul
Salmonella Newport CD 94 = assay: Inhibition zone assay; parameters: key: --: "-" means that no inhibition has been found; conditions: I 10 ul
[19] = test system: Serratia fonticola ATCC 298449; assay: Inhibition zone assay; conditions: I and B 10 ul, L 5 ug
[20] = test system: Enterobacter agglomerans Gilardi 1081; assay: Inhibition zone assay; parameters: key: --: "-" means that no inhibition has been found; conditions: I and B 10 ul, L 5 ug
[21] = test system: Flavobacterium capsulatum ATCC 14666; assay: Inhibition zone assay; parameters: key: --: "-" means that no inhibition has been found
[22] = test system: Rhizobium phaseoli CIAT 899; assay: Inhibition zone assay; parameters: key: --: "-" means that no inhibition has been found; conditions: I and B 10 ul, L 5 ug
[23] = test system: Pseudomonas syringae pv. syringae ATCC 19310; assay: Inhibition zone assay; parameters: key: --: "-" means that no inhibition has been found
[24] = test system: Salmonella typhimurium ATCC 23565; assay: Inhibition zone assay; parameters: key: --: "-" means that no inhibition has been found
[25] = test system: Pseudomonas fluorescens ATCC 13525; assay: Inhibition zone assay; parameters: key: --: "-" means that no inhibition has been found
[26] = test system: Klebsiella aerogenes 1961 E; assay: Inhibition zone assay; parameters: key: --: "-" means that no inhibition has been found; conditions: I and B 10 ul, L 5 ug
[27] = test system: Alcalienes denitrificans ATCC 15173; assay: Inhibition zone assay; parameters: key: --: "-" means that no inhibition has been found
[28] = test system: Enterobacter agglomerans ICPB 3423; assay: Inhibition zone assay; parameters: key: --: "-" means that no inhibition has been found
[29] = test system: Pseudomonas syringae pv. tomato NCPPB 1106; assay: Inhibition zone assay; parameters: key: --: "-" means that no inhibition has been found; conditions: * synthetic ApidIa and heattreated immune lymph instead of Bee6 and native immune lymph
[30] = test system: Listeria monocytogenes B5; assay: Inhibition zone assay; parameters: key: --: "-" means that no inhibition has been found; conditions: L 5 ug
[31] = test system: Xanthomonas campestris pv. graminis NCPPB 2700; assay: Inhibition zone assay; parameters: key: --: "-" means that no inhibition has been found; conditions: I and B 10 ul, L 5 ug
[32] = test system: Neisseria mucosa ATCC 25999; assay: Inhibition zone assay; parameters: key: --: "-" means that no inhibition has been found; conditions: I 10 ul

## CC[C@H](C)[C@H](NC(=O)[C@H](CCCCN)NC(=O)[C@@H]1CCCN1C(=O)[C@H](CC(N)=O)NC(=O)[C@H](Cc1ccccc1)NC(=O)[C@@H]1CCCN1C(=O)CNC(=O)[C@H](CCC(N)=O)NC(=O)CNC(=O)[C@@H]1CCCN1C(=O)[C@H](Cc1ccccc1)NC(=O)[C@@H](NC(=O)[C@@H]1CCCN1C(=O)[C@H](Cc1ccccc1)NC(=O)[C@@H]1CCCN1C(=O)[C@H](CCCNC(=N)N)NC(=O)[C@H](CCCNC(=N)N)NC(=O)CNC(=O)[C@@H]1CCCN1C(=O)[C@H](CCC(N)=O)NC(=O)[C@@H]1CCCN1C(=O)[C@@H](NC(=O)[C@H](CC(N)=O)NC(=O)[C@@H]1CCCN1C(=O)[C@H](CC(C)C)NC(=O)[C@@H]1CCCN1C(=O)[C@@H](NC(=O)[C@@H](N)Cc1ccc(O)cc1)C(C)C)C(C)C)[C@@H](C)O)C(=O)N[C@@H](CCCCN)C(=O)N[C@@H](Cc1c[nH]c2ccccc12)C(=O)N1CCC[C@H]1C(=O)N[C@@H](CCC(N)=O)C(=O)NCC(=O)N[C@@H](Cc1ccc(O)cc1)C(=O)O [bee 9] (H-YVPLPNVPQPGRRPFPTFPGQGPFNPKIKWPQGY-OH)
[1]
  diameter of growth-inhibition zone: --
[2]
  diameter of growth-inhibition zone: --
Proteus mirabilis AU 87
  diameter of growth-inhibition zone: --
[3]
  diameter of growth-inhibition zone: --
[4]
  diameter of growth-inhibition zone: --
[5]
  diameter of growth-inhibition zone: --
[6]
  diameter of growth-inhibition zone: 5 mm
Salmonella Wien 83/16
  diameter of growth-inhibition zone: --
[7]
  diameter of growth-inhibition zone: --
[8]
  diameter of growth-inhibition zone: --
[9]
  diameter of growth-inhibition zone: 4 mm
[10]
  diameter of growth-inhibition zone: --
[11]
  diameter of growth-inhibition zone: --
[12]
  diameter of growth-inhibition zone: --
[13]
  diameter of growth-inhibition zone: --
[14]
  diameter of growth-inhibition zone: --
[15]
  diameter of growth-inhibition zone: --
[16]
  diameter of growth-inhibition zone: --
[17]
  diameter of growth-inhibition zone: --
[18]
  diameter of growth-inhibition zone: --
Salmonella Newport CD 94
  diameter of growth-inhibition zone: --
[19]
  diameter of growth-inhibition zone: 9 mm
[20]
  diameter of growth-inhibition zone: --
[21]
  diameter of growth-inhibition zone: --
[22]
  diameter of growth-inhibition zone: --
[23]
  diameter of growth-inhibition zone: --
[24]
  diameter of growth-inhibition zone: --
[25]
  diameter of growth-inhibition zone: --
[26]
  diameter of growth-inhibition zone: --
[27]
  diameter of growth-inhibition zone: --
[28]
  diameter of growth-inhibition zone: --
[29]
  diameter of growth-inhibition zone: --
[30]
  diameter of growth-inhibition zone: --
[31]
  diameter of growth-inhibition zone: --
[32]
  diameter of growth-inhibition zone: --
